Data reported in the NIST ThermoML archive (doi:10.1021/je060271a).
Several values for one entry are separate records, joined by “and”; a condition that tells them apart may be missing. Equal entries are not always repeated.

Conditions: 323.16 K, Liquid, Vibrating tube method

CCCCCC(=O)OCC(COC(=O)CCCCC)(COC(=O)CCCCC)COC(=O)CCCCC [pentaerythritol tetrahexanoate]
Conditions | mass density
1057.9 kPa | 973.4 kg/m3
1108.4 kPa | 973.5 kg/m3
1111.9 kPa | 973.6 kg/m3
1116.1 kPa | 973.5 kg/m3
1120.2 kPa | 973.4 kg/m3
1124.1 kPa | 973.4 kg/m3
1169 kPa | 973.6 kg/m3
1173 kPa | 973.5 kg/m3
1178.4 kPa | 973.6 kg/m3
1182.7 kPa | 973.5 kg/m3
1188.3 kPa | 973.4 kg/m3
1192.5 kPa | 973.4 kg/m3
1197 kPa | 973.5 kg/m3
1201.3 kPa | 973.4 kg/m3
1206.2 kPa | 973.5 kg/m3
1211.4 kPa | 973.6 kg/m3
1215.4 kPa | 973.6 kg/m3
1219.4 kPa | 973.6 kg/m3
1224.6 kPa | 973.5 kg/m3
1228.9 kPa | 973.6 kg/m3
1234 kPa | 973.5 kg/m3
1239.2 kPa | 973.4 kg/m3
1336.1 kPa | 973.5 kg/m3
1340.9 kPa | 973.6 kg/m3
1346.8 kPa | 973.6 kg/m3
1352 kPa | 973.7 kg/m3
1357.4 kPa | 973.6 kg/m3
1362.4 kPa | 973.6 kg/m3
1368 kPa | 973.6 kg/m3
1372.9 kPa | 973.7 kg/m3
1383.8 kPa | 973.7 kg/m3
1389.5 kPa | 973.7 kg/m3
1395.4 kPa | 973.6 kg/m3
1400.6 kPa | 973.7 kg/m3
1405.7 kPa | 973.7 kg/m3
1542.7 kPa | 973.7 kg/m3
1548.7 kPa | 973.7 kg/m3
1555.9 kPa | 973.7 kg/m3
1561.4 kPa | 973.8 kg/m3
1568.9 kPa | 973.8 kg/m3
1574.8 kPa | 973.8 kg/m3
1580.3 kPa | 973.9 kg/m3
1587.3 kPa | 973.9 kg/m3
1592.8 kPa | 974 kg/m3
1784.1 kPa | 973.9 kg/m3
1792.4 kPa | 974 kg/m3
1799.4 kPa | 973.9 kg/m3
1808.1 kPa | 974 kg/m3
1815.2 kPa | 974 kg/m3
1823.9 kPa | 974 kg/m3
1831.3 kPa | 974 kg/m3
1839.8 kPa | 974 kg/m3
1848.7 kPa | 974 kg/m3
1856.1 kPa | 973.9 kg/m3
1864.5 kPa | 974 kg/m3
1872.1 kPa | 974 kg/m3
1879.9 kPa | 973.9 kg/m3
1889.3 kPa | 974 kg/m3
1998.3 kPa | 974 kg/m3
2007.3 kPa | 974 kg/m3
2015.3 kPa | 974.1 kg/m3
2024.8 kPa | 974.2 kg/m3
2032.8 kPa | 974.2 kg/m3
2042.2 kPa | 974.1 kg/m3
2051.9 kPa | 974.2 kg/m3
2078.2 kPa | 974.2 kg/m3
2086.8 kPa | 974.2 kg/m3
2097.3 kPa | 974.1 kg/m3
2105.3 kPa | 974.2 kg/m3
2275.9 kPa | 974.3 kg/m3
2285.6 kPa | 974.2 kg/m3
2297.5 kPa | 974.3 kg/m3
2309.2 kPa | 974.3 kg/m3
2319 kPa | 974.3 kg/m3
2329.5 kPa | 974.3 kg/m3
2339.5 kPa | 974.4 kg/m3
2350.8 kPa | 974.3 kg/m3
2360.3 kPa | 974.3 kg/m3
2372.6 kPa | 974.1 kg/m3
2382.7 kPa | 974.2 kg/m3
2394.7 kPa | 974.5 kg/m3
2404.4 kPa | 974.2 kg/m3
2416.5 kPa | 974.4 kg/m3
2428.5 kPa | 974.4 kg/m3
2438.7 kPa | 974.4 kg/m3
2448.6 kPa | 974.5 kg/m3
2460.9 kPa | 974.4 kg/m3
2471.7 kPa | 974.4 kg/m3
2484.5 kPa | 974.5 kg/m3
3633.2 kPa | 975.3 kg/m3
3649.5 kPa | 975.3 kg/m3
3663.4 kPa | 975.2 kg/m3
3679.8 kPa | 975.3 kg/m3
3696.6 kPa | 975.2 kg/m3
3710.8 kPa | 975.3 kg/m3
3725 kPa | 975.2 kg/m3
3741.8 kPa | 975.2 kg/m3
3756 kPa | 975.3 kg/m3
3773.4 kPa | 975.3 kg/m3
3790.9 kPa | 975.4 kg/m3
9966.7 kPa | 979.5 kg/m3
9977.9 kPa | 979.5 kg/m3
10002 kPa | 979.7 kg/m3
10012 kPa | 979.7 kg/m3
10025 kPa | 979.6 kg/m3
10037 kPa | 979.6 kg/m3
10040 kPa | 979.6 kg/m3
10048 kPa | 979.7 kg/m3
10060 kPa | 979.7 kg/m3
10071 kPa | 979.8 kg/m3
10084 kPa | 979.7 kg/m3
10096 kPa | 979.7 kg/m3
11088 kPa | 980.3 kg/m3
11101 kPa | 980.4 kg/m3
11112 kPa | 980.3 kg/m3
11122 kPa | 980.3 kg/m3
11136 kPa | 980.4 kg/m3
11150 kPa | 980.5 kg/m3
11155 kPa | 980.3 kg/m3
11157 kPa | 980.4 kg/m3
11160 kPa | 980.4 kg/m3
11163 kPa | 980.4 kg/m3
11168 kPa | 980.4 kg/m3
11174 kPa | 980.3 kg/m3
11186 kPa | 980.4 kg/m3
11198 kPa | 980.4 kg/m3
11199 kPa | 980.3 kg/m3
11200 kPa | 980.4 kg/m3
12660 kPa | 981.3 kg/m3
12684 kPa | 981.3 kg/m3
12713 kPa | 981.5 kg/m3
12737 kPa | 981.5 kg/m3
12767 kPa | 981.4 kg/m3
12791 kPa | 981.5 kg/m3
12819 kPa | 981.5 kg/m3
12848 kPa | 981.4 kg/m3
12871 kPa | 981.5 kg/m3
12899 kPa | 981.4 kg/m3
15446 kPa | 983.2 kg/m3
15470 kPa | 983.2 kg/m3
15500 kPa | 983.1 kg/m3
16331 kPa | 983.8 kg/m3 and 983.7 kg/m3
16333 kPa | 983.7 kg/m3
16334 kPa | 983.8 kg/m3 and 983.7 kg/m3
16336 kPa | 983.8 kg/m3
